How the values were obtained:
[1] = Antioxidant activity against AAPH-induced hemolysis in Homo sapiens (human) RBC assessed as inhibition time at 10 uM by spectrophotometry; type: functional, Erythrocyte
[2] = Antioxidant activity assessed as DPPH scavenging activity after 30 min by UV-vis spectroscopy; type: functional

SMILES | IC50 [2] [µM] | Time [1] [min]
CCOC(=O)[C@H](Cc1ccccc1)NC(=O)/C=C/c1ccc(O)c(OC)c1 | 52.4 | 198
CCOC(=O)[C@H](Cc1ccccc1)NC(=O)/C=C\c1ccc(O)cc1 | > 200 | –
COC(=O)[C@H](Cc1ccc(O)cc1)NC(=O)/C=C/c1ccc(O)cc1 | > 200 | –
CCOC(=O)[C@@H](NC(=O)/C=C/c1ccc(O)c(OC)c1)C(C)C | 87.2 | –
O=C1O[C@H]([C@@H](O)CO)C(O)=C1O [ASCORBIC ACID] | 29.6 | –
O=C(O)/C=C/c1ccc(O)c(O)c1 [CAFFEIC ACID] | 18.2 | –
O=C(O)/C=C/c1ccc(O)cc1 [COUMARIC ACID] | > 200 | –
CCOC(=O)/C=C/c1ccc(O)c(O)c1 [ETHYL CAFFEATE] | 49 | –
CCOC(=O)/C=C/c1ccc(O)c(OC)c1 [ETHYL FERULATE] | 150 | 150
CCOC(=O)/C=C/c1ccc(O)cc1 [ETHYL P-COUMARATE] | > 200 | –

Second part, led by results:

IC50 [2] [µM] | SMILES | Time [1] [min]
12.8 | CCOC(=O)CNC(=O)/C=C/c1ccc(O)c(O)c1 | 180
64.6 | CCOC(=O)CNC(=O)/C=C/c1ccc(O)c(OC)c1 | 193
> 200 | CCOC(=O)CNC(=O)/C=C/c1ccc(O)cc1 | 138
1.45 | CCOC(=O)[C@H](Cc1ccccc1)NC(=O)/C=C/c1ccc(O)c(O)c1 | –
50.1 | COc1cc(/C=C/C(=O)O)ccc1O [FERULATE] | 148
